Source: US10441560B2, “Compositions and methods for treating non-alcoholic steatohepatitis” (priority 2013, dated 2019)

Key:
CYP450 = conditions: at free concentrations observed in humans; previous studies; cited from earlier work
[1] = Lipid lowering in animal studies; type: in vivo; conditions: rats, hamsters and rabbits
NASH = assay: Phase II double blind, placebo-controlled clinical trial of EPA-E in subjects with NASH; type: in vivo, human
From the text: This example provides the protocol used for an ongoing phase II clinical trial, double blind, placebo-controlled study to investigate the safety, efficacy, and pharmacokinetic profile of two doses of EPA-E in subjects with NASH. Up to 70 subjects were enrolled into each treatment arm, for a total of 210 subjects to be enrolled. Block randomization using an interactive voice response system (IVRS) was used to assign patients in a 1:1:1 ratio to two active doses and placebo. Patients were stratified at randomization by presence or absence of diabetes. Patients with diabetes comprised no more than 25% of the total number of patients enrolled. […] Subjects were required to have a liver biopsy with proven NASH in the 6 month period prior to screening. The Pharmacokinetic profile for EPA-E was evaluated in a subgroup of subjects in specified sites. Subjects were approached prior to providing informed consent to determine if they will participate in the PK group subset. Approximately 36 subjects participated in the PK subset evaluation (12 from each treatment arm, to include 6 males and 6 females). Overall study duration plan was 2 years. In order to support the trial, EPA-E capsules and matching placebo capsules were prepared. EPA-E capsule is an oval soft gelatin capsule containing 300 mg of EPA-E as an active ingredient. […] These capsules are unidentifiable as EPA-E capsules or placebo capsules. Subjects were administered orally 3 capsules 3 times daily, immediately after meals. Subjects were potentially included into the study if they met all the following criteria: • 1. Diagnosis of definite NASH by the central reading pathologists: • Liver biopsy slides will be submitted for evaluation by the central pathologists according to one of the following criteria: • a. Previous liver biopsies must have been obtained within 6 months prior to informed consent and should be judged by the local pathologist as showing NAS ≥4 with a minimum score of 1 each for steatosis and lobular inflammation plus […] ballooning OR at least 1a sinusoidal fibrosis AND a finding of possible or definite steatohepatitis • b. For liver biopsies performed after informed consent is obtained, all slides will be submitted for reading by the central pathologists in conformity with the independent pathology review charter (IPRC) • 2. Patients of either gender greater than 18 years of age • 3. Patients with diabetes that have been on stable doses of anti-diabetic agents since at least 6 months prior to liver biopsy may be enrolled • 4. Females must be of non-child bearing potential (surgically sterilized or at least two years post-menopausal) or if of child-bearing potential, must have a negative pregnancy test at screening and agree to use an effective form of contraception during the study and for at least 30 days following the last dose of study medication • 5. Normal ECG or clinically non-significant findings at the Screening and Baseline visits • 6. No significant concomitant medical illness, without any clinically significant physical exam findings and without any clinically significant laboratory findings, as determined by the principal investigator • 7. […] Inability or unwillingness to have a liver biopsy • 2. Diagnosis of cirrhosis by central pathology reviewers • 3. Previous bariatric surgery or biliary diversion (i.e. gastric bypass), esophageal banding and gastric banding • 4. Serum ALT>300 U/L • 5. Subject has used drugs associated with steatohepatitis within 6 months prior to screening (corticosteroids, high dose estrogens, methotrexate, amiodarone, anti-HIV drugs, tamoxifen, diltiazem) • 6. Use of the following anti-NASH agents for more than a 2 week period in the 3 months prior to liver biopsy or the 3 months prior to screening: • a. Vitamin E>60 IU per day • b. Omega-3-acid ethyl esters or omega-3-PUFA-containing supplements >200 mg per day • c. Thiazoledinediones (e.g. pioglitazone) • 7. […]

[2] = Absorption, distribution and metabolites after oral 14C-EPA-E in rats; type: in vivo
Description: (§1) After administration of ^14C-EPA-E into the ligated intestine of rats, the residual radioactivity in the intestine at 24 hours was only 4.6% of the administered dose. Radioactivity transferred to the plasma and lymph was mainly detected in the triglyceride (TG) fraction in the early phase after dosing, while distribution to the free fatty acid (FFA) fraction was slight at all timepoints. […] Orally administered EPA-E was primarily incorporated in adrenal gland lipids as cholesterol esters of the fatty acids eicosapentaenoic acid (EPA), docosapentaenoic acid (DPA) and docosahexaenoic acid (DHA).
After oral administration of ^14C-EPA-E to the rat, EPA, DPA and DHA were detected as metabolites in the total lipid fraction of the plasma and tissues (liver, fat, heart and brain). […] In the total lipid fraction of the liver, the radioactivity originated mainly from EPA, DPA and DHA. Thus, it is considered that EPA, DPA and DHA are the predominant metabolites of ^14C-EPA-E in tissues, as constituent fatty acids of the total lipid fraction.

[3] = test system: galactosamine-induced steatohepatitis mouse model; assay: Galactosamine-induced steatohepatitis mouse model; type: in vivo; conditions: oral administration at 1000 mg/kg
[4] = test system: methionine-choline deficient diet rat model of nonalcoholic steatohepatitis; assay: Methionine-choline deficient diet rat model of nonalcoholic steatohepatitis; type: in vivo; conditions: repeat oral administration at 1000 mg/kg
pylorus-ligated rats = assay: Gastric fluid levels in pylorus-ligated rats; type: in vivo; conditions: 3000 mg/kg oral dose
[5] = test system: central nervous, autonomic nervous, respiratory and cardiovascular systems; assay: Safety pharmacology studies; type: in vivo; conditions: oral doses up to 3000 mg/kg
[6] = test system: diet-induced hepatic steatosis model; assay: Mouse diet-induced hepatic steatosis model; type: in vivo; conditions: repeat oral administration at ≥0.1 mg/g
[7] = design: species or system dogs; conditions: dog, in vivo, po, 30 mg/kg, 1 week
Description: (§2) Consequently, when EPA-E is administered orally to humans, it would appear that it is well absorbed, even though the unchanged ethyl ester form is not detected, and the free form (EPA) is only detected at a very low level, in the blood. Due to this absorption mechanism of essential fatty acids, the administered EPA-E exists as a blood-constituent fatty acid in the total lipids. In fact, according to the approval package document of Lovaza®, the free form of EPA is undetectable in the circulation (<1 μM) following an oral dose of 4 g of Omacor® (a mixture of the ethyl esters of EPA and DHA) Following oral administration of EPA-E, EPA, DPA and DHA were isolated and identified as metabolites in tissues and plasma. EPA, DPA and DHA were incorporated into TG and PL. Radioactivity was primarily excreted in expired air (44%) after single oral administration at 30 mg/kg EPA-E with minimal excretion in bile and urine (˜3%) and approximately 20% excreted in feces.

arteries = assay: Preservation of elasticity of arteries; type: in vivo; conditions: rabbits
[8] = Excretion of radioactivity after single oral administration (rat); type: in vivo, rats
Description: EPADEL is a product containing ethyl all-cis-5,8,11,14,17-eicosapentaenoate (EPA-E), one of the n−3 essential fatty acids. The preclinical absorption, distribution, metabolism and excretion (ADME) characteristics of EPA-E have been determined primarily in rats.
as §2
Renal excretion was the elimination route for several minor highly polar metabolites (<0.4%), but EPA-E, EPA, DPA or DHA were not detected in the urine. In feces, EPA-E and EPA, evidently derived from the unabsorbed drug, were detected; however, no DPA or DHA was detected in the feces.

ligated intestine = assay: Administration of 14C-EPA-E into the ligated intestine of rats; type: in vivo; conditions: at 24 hours
Description: as §1

[9] = Hydrolysis in rat small intestine homogenates, lymph, plasma and liver homogenates; type: in vitro ADME
[10] = single oral administration at 30 mg/kg

Question: For `CC/C=C\C/C=C\C/C=C\C/C=C\C/C=C\CCCC(=O)O` [EPA, Eicosapentaenoic acid], which CYP450 inhibition (CYP450) is on record?
Answer: Its CYP450 inhibition is “unlikely to inhibit CYP450”.

Question: For `CC/C=C\C/C=C\C/C=C\C/C=C\C/C=C\CCCC(=O)OCC` [EPA-E, ethyl all-cis-5,8,11,14,17-eicosapentaenoate], which lipids [1] is on record?
Answer: The lipids was “lower lipids”.

Question: What about the response rate (NASH; fasting glucose =<125 mg/dL and HbA1c =<6.4, Study arm 1, FIG. 4) of the same compound?
Answer: Its response rate is “higher response to rate”.

Question: What about the “efficacy (responders)” value (NASH; fasting glucose =<125 mg/dL and HbA1c =<6.4, Study arm 2) of the same compound?
Answer: Its value is “equivalent to that of Study arm 1”.

Question: And the “NASH response (change of NAS score)” value (NASH; patients with GGT levels =<33 IU/L, Study arm 1 and 2, FIG. 9, preliminary)?
Answer: Its value is “higher efficacy”.

Question: And the “efficacy (preliminary endpoint achievement rate v. GGT)” value (NASH; patients with GGT levels =<60 IU/L, Study arm 1 and 2, FIG. 8, preliminary)?
Answer: Its value is “higher efficacy”.

Question: What about the “improvement of serum EPA/AA ratio on Day 365” value (NASH; patients with GGT ≤33 IU/L, Study arm 2, FIG. 10, preliminary) of the same compound?
Answer: Its value is “higher efficacy”.

Question: What about the “serum EPA/AA ratio over time” value (NASH; patients with GGT ≤33 IU/L, Study arm 2, FIG. 12) of the same compound?
Answer: Its value is “significant increase”.

Question: What about the “efficacy (responders)” value (NASH; patients with HbA1c levels =<6.4, Study arm 1, FIG. 2, preliminary) of the same compound?
Answer: Its value is “higher efficacy”.

Question: And the “efficacy (responders)” value (NASH; patients with HbA1c levels =<6.4, Study arm 2, preliminary)?
Answer: Its value is “equivalent to that of Study arm 1”.

Question: What about the “efficacy (responders)” value (NASH; patients with fasting glucose =<125 mg/dL, Study arm 1, FIG. 3, preliminary) of the same compound?
Answer: The value was “higher efficacy”.

Question: What about the “efficacy (responders)” value (NASH; patients with fasting glucose =<125 mg/dL, Study arm 2, preliminary) of the same compound?
Answer: The value was “equivalent to that of Study arm 1”.

Question: What about the “efficacy (responders)” value (NASH; patients without biliary tract disease markers (GGT ≤33 IU/L), Study arm 1 (600 mg TID) and Study arm 2 (900 mg TID), FIG. 7, preliminary) of the same compound?
Answer: The value was “higher efficacy”.

Question: What about the “efficacy (responders: NAS Score ≤3 or improvement of ≥2 across at least 2 of NAS components)” value (NASH; patients without diabetes or with mild diabetes compared to diabetic patients, Study arm 1 (600 mg EPA-E, TID), FIG. 1, preliminary) of the same compound?
Answer: The value was “higher efficacy”.

Question: And the “efficacy (responders: NAS Score ≤3 or improvement of ≥2 across at least 2 of NAS components)” value (NASH; patients without diabetes or with mild diabetes, Study arm 2 (900 mg EPA-E, TID), preliminary)?
Answer: The value was “equivalent to that of Study arm 1”.

Question: What about the absorption ([2]; single oral dose 30-1000 mg/kg, rats) of the same compound?
Answer: The absorption was “well-absorbed”.

Question: What about the progression of steatohepatitis [3] of the same compound?
Answer: Its progression of steatohepatitis is “retarded progression of steatohepatitis”.

Question: What about the “triglyceride (TG) accumulation” value [3] of the same compound?
Answer: The value was “suppressing triglyceride (TG) accumulation”.

Question: And the fibrosis [4]?
Answer: Its fibrosis is “inhibited fibrosis”.

Question: And the “inflammation and oxidative stress” value [4]?
Answer: The value was “suppressing inflammation and oxidative stress”.

Question: What about the gastric fluid levels (pylorus-ligated rats) of the same compound?
Answer: Its gastric fluid levels is “reduction in gastric fluid levels”.

Question: And the “effect on the central nervous, autonomic nervous, respiratory and cardiovascular systems” value [5]?
Answer: The value was “no effect”.

Question: And the fat accumulation [6]?
Answer: The fat accumulation was “suppressed fat accumulation”.

Question: What about the “hepatic SREBP-1c levels” value [6] of the same compound?
Answer: Its value is “suppressing hepatic SREBP-1c levels”.

Question: What about the “monounsaturated fatty acid (MUFA) synthesis by SCD1” value [6] of the same compound?
Answer: The value was “suppressing”.

Question: And the “radioactivity excreted in the urine” value [7]?
Answer: The value was 1.0%.

Question: What about the “radioactivity recovered in the feces” value [7] of the same compound?
Answer: Its value is 19.2%.

Question: And the elasticity of arteries (arteries)?
Answer: The elasticity of arteries was “preserve the elasticity of arteries”.

Question: What about the “radioactivity excreted in expired air” value ([8]; rat, in vivo, po, 30 mg/kg) of the same compound?
Answer: Its value is 44%.

Question: And the “radioactivity excreted in bile and urine” value [8, 10]?
Answer: Its value is ~3%.

Question: What about the “radioactivity excreted in feces” value [8, 10] of the same compound?
Answer: The value was “approximately 20%”.

Question: And the “EPA-E in the urine” value ([8]; urine)?
Answer: The value was “not detected”.

Question: For `CC/C=C\C/C=C\C/C=C\C/C=C\C/C=C\CCCC(=O)OCC` [^14C-EPA-E], which “residual radioactivity in the intestine” value (ligated intestine) is on record?
Answer: The value was 4.6 % of the administered dose.

Question: And the hydrolysis [9]?
Answer: Its hydrolysis is “hydrolyzed rapidly”.

Question: And the “unchanged EPA-E in the plasma or tissues” value ([2]; rat, oral administration, plasma, liver, fat, heart and brain)?
Answer: Its value is “no unchanged EPA-E was found”.

Question: And the “distribution of radioactivity in body tissues” value ([2]; rats, oral 14C-EPA-E)?
Answer: Its value is “widely distributed in the body tissues”.
